Laboratory results as given in ChEMBL document CHEMBL1155321, “Dopamine D3 receptor antagonists: the quest for a potentially selective PET ligand. Part 3: Radiosynthesis and in vivo studies” (Bioorg Med Chem Lett, 2009).

How the values were obtained:
[1] = Intrinsic clearance in rat liver microsomes; type: ADME, Microsome
[2] = Intrinsic clearance in human liver microsomes; type: ADME, Microsome

`O=C1N(CCN2Cc3ccccc3C2)CCN1c1cccc(Cl)c1` gave a CLint scaled [1] of 36.9 mL/min/kg and a CLint scaled [2] of 8.9 mL/min/kg.
